Measured values taken from patent publication US8426417B2, “Substituted pyrrolo-pyrimidine derivatives, process for their preparation and their use as kinase inhibitors” (priority 2007, dated 2013).

Target: T1, PLK1 enzyme KD (Kinase Domain) 2-345 (Homo sapiens, UniProt P53350)
T1 construct: PLK1 kinase domain (corresponding to residues 2-345) was PCR amplified; His tag (N, cleaved yes); TEV cleavage site (N, cleaved yes); made in house; host or cells: High5 insect cells (baculovirus generated in Sf9)
T1 sequence (P53350 2-345): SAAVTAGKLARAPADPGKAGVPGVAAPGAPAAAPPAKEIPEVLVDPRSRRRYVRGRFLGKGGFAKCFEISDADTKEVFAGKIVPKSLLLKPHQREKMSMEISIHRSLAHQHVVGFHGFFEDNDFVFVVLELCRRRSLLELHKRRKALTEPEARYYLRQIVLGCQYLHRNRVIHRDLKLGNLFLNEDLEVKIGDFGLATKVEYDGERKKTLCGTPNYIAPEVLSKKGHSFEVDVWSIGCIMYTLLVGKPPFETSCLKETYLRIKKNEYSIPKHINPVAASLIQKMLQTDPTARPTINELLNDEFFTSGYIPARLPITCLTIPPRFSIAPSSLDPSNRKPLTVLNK
Test: Biochemical assay for inhibitors of PLK-1 kinase activity (trans-phosphorylation, Dowex resin, 33P-ATP)
Settings: PLK1 KD 2-345 3 nM, 40 microM ATP, 85 microM alpha-casein, 60 minutes at room temperature
Description: The inhibitory activity of putative kinase inhibitors and the potency of selected compounds were determined using a trans-phosphorylation assay.
Three cycles of mixing are done immediately after the addition of the resin.

IC50: 0.11 µM
Structure (SMILES): O=C1NCCc2[nH]c(-c3ccnc(Nc4ccccc4)n3)cc21 [Reference Compound]
